The structures appear in SMILES notation.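 Cultured in 96-well plates, cells were exposed to test compound for 48 hours across five concentrations. GI50: concentration for 50% inhibition of growth.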 Activity calls are given as the source filed them. No stated cut-off is given here; in the data, active = GI50 up to about 1.1 µM and inactive = higher.

Some test systems named below: OVCAR-5; COLO 205; DU-145; DLD-1; A549; PC-3; TK-10; SN12C; HT-29; SF-295; SW-620; A498; HOP-92; Hs-578T; CAKI-1; RPMI-8226; SF-268; HCT-116; UO-31; BT-549.
Assay in all cases: growth of human tumour cells (NCI), 48 h

For `CCN(CC)CCCNc1ccc2ncn3c4ccc(O)cc4c(=O)c1c23`, the GI50 in the assay on OVCAR-5 is 1.98 µM (inactive); with COLO 205, 0.908 µM (active); in the assay with DU-145 it was 1.42 µM (inactive); with DLD-1, 1.24 µM (inactive); in the assay with A549 it was 0.231 µM (active); with PC-3, 1.41 µM (inactive). In addition, the GI50 in the assay with TK-10 was 1.69 µM (inactive); in the assay with SN12C, 0.637 µM (active); in the assay with HT-29, 0.649 µM (active); in the assay with SF-295, 1.63 µM (inactive); in the assay with SW-620, 0.578 µM (active); with A498 it was 4.45 µM (inactive). Further, the GI50 in the assay with HOP-92 was 0.718 µM (active); with Hs-578T it was 0.39 µM (active); in the assay with CAKI-1 it was 0.365 µM (active); with RPMI-8226, 2.06 µM (inactive); in the assay on SF-268, 1.66 µM (inactive); with HCT-116, 0.441 µM (active). For the same molecule, in the assay with UO-31, the GI50 is 2.16 µM (inactive).
For `COc1ccc2nc3ccccc3c(NCCCN(C)CCCl)c2c1`, the GI50 with OVCAR-5 is 0.497 µM (active); with COLO 205 it was 0.147 µM (active); with BT-549, 1.22 µM (inactive); in the assay on DU-145, 0.333 µM (active); in the assay on DLD-1 it was 0.233 µM (active); in the assay on A549, 0.235 µM (active). The GI50 is 0.202 µM (active) in the assay with PC-3; 0.859 µM (active) in the assay on TK-10; 0.16 µM (active) in the assay on SN12C; 0.0998 µM (active) in the assay with HT-29; 0.371 µM (active) in the assay on SF-295; 0.0497 µM (active) with SW-620. Also, the GI50 in the assay with A498 was 0.458 µM (active); in the assay on HOP-92, 0.185 µM (active); in the assay on Hs-578T it was 0.188 µM (active); with CAKI-1, 0.231 µM (active); in the assay with RPMI-8226, 0.0817 µM (active); with SF-268, 0.155 µM (active). Besides, the GI50 in the assay on HCT-116 was 0.0877 µM (active); with UO-31 it was 0.592 µM (active).
In the case of `COc1ccc(C2S/C(=C\c3cccc([N+](=O)[O-])c3)C(=O)N2NC(=O)Cc2ccccc2)cc1` (stereo unspecified), the GI50 in the assay on OVCAR-5, in the assay with COLO 205, with DLD-1, in the assay with A549, in the assay with TK-10 and in the assay with SN12C was > 100 µM (inactive) throughout. Moreover, the GI50 in the assay on HT-29, in the assay on SF-295, in the assay on SW-620, in the assay on A498, in the assay on HOP-92 and with CAKI-1 was > 100 µM (inactive) throughout. The GI50 in the assay with RPMI-8226, in the assay with SF-268, in the assay on HCT-116 and in the assay on UO-31 was > 100 µM (inactive) each time.
As for `C[C@@H]1CC(=O)C2CCCC1C2=O` (stereo partly specified), the GI50 in the assay on OVCAR-5 is > 100 µM (inactive); in the assay with COLO 205 it was 45.7 µM (inactive); with DLD-1, > 100 µM (inactive); in the assay with A549 it was > 100 µM (inactive); in the assay with TK-10, > 100 µM (inactive); in the assay with SN12C it was > 100 µM (inactive). Moreover, the GI50 in the assay on HT-29, in the assay on SF-295, in the assay with SW-620, in the assay with A498, in the assay on HOP-92 and with CAKI-1 was > 100 µM (inactive) each time. Moreover, the GI50 in the assay on RPMI-8226, in the assay on SF-268, in the assay on HCT-116 and in the assay with UO-31 was > 100 µM (inactive) throughout.
`O=C(/C=C/c1ccc(Br)cc1)c1ccc(NCc2nc3ccccc3[nH]2)cc1`: the GI50 with OVCAR-5 is > 59.8 µM (inactive); in the assay with COLO 205 it was 2.53 µM (inactive); with DLD-1, 4.83 µM (inactive); with A549 it was 5.77 µM (inactive); in the assay with TK-10, 11.1 µM (inactive); in the assay on SN12C, 9.93 µM (inactive). The GI50 in the assay on HT-29 was 4.65 µM (inactive); in the assay with SF-295, 4.61 µM (inactive); with SW-620 it was 2.96 µM (inactive); in the assay with A498 it was 19.1 µM (inactive); in the assay with HOP-92 it was 4 µM (inactive); in the assay with CAKI-1, 9.68 µM (inactive). Also, the GI50 with RPMI-8226 was 1.93 µM (inactive); in the assay on SF-268 it was 8.18 µM (inactive); in the assay with HCT-116, 4.66 µM (inactive); in the assay on UO-31 it was 7.73 µM (inactive).
Take `O=C(CCc1ccccc1)NS(=O)(=O)c1ccccc1`: the GI50 in the assay on OVCAR-5, in the assay on COLO 205, in the assay with DLD-1, in the assay with A549, in the assay on TK-10 and in the assay with SN12C was > 100 µM (inactive) each time. The GI50 in the assay with HT-29, in the assay with SF-295, with SW-620, in the assay on A498, with HOP-92 and in the assay with CAKI-1 was > 100 µM (inactive) throughout. The GI50 in the assay with RPMI-8226, in the assay with SF-268, with HCT-116 and in the assay with UO-31 was > 100 µM (inactive) in each case.
As for `C[N+](C)(C)CC1CCC(C[N+](C)(C)C)C1=O` (stereo unspecified), the GI50 was 7.28 µM (inactive) in the assay with OVCAR-5; 17 µM (inactive) with BT-549; 15.5 µM (inactive) in the assay on DU-145; 2.2 µM (inactive) with DLD-1; 18.7 µM (inactive) with A549; 17.2 µM (inactive) in the assay with PC-3. For the same molecule, the GI50 with TK-10 was 3.3 µM (inactive); in the assay with SN12C, 4.12 µM (inactive); in the assay on HT-29 it was 1.56 µM (inactive); in the assay with SF-295, 20.5 µM (inactive); in the assay on A498, 6.78 µM (inactive); in the assay on HOP-92 it was 0.92 µM (active). For the same molecule, the GI50 in the assay with Hs-578T was 38.6 µM (inactive); with CAKI-1, 0.668 µM (active); with RPMI-8226 it was 0.328 µM (active); with HCT-116, 1.71 µM (inactive); in the assay on UO-31 it was 4.34 µM (inactive).
Turning to `Cn1c2ccccc2c2[nH]cc3nc4ccccc4c-3c21`, the GI50 was 19.2 µM (inactive) in the assay with OVCAR-5; 16.9 µM (inactive) with COLO 205; > 100 µM (inactive) with DLD-1; 22.6 µM (inactive) in the assay on A549; 22.3 µM (inactive) in the assay on TK-10; 23.5 µM (inactive) with SN12C. For the same molecule, the GI50 was 15.8 µM (inactive) with HT-29; 22.1 µM (inactive) with SF-295; 24.7 µM (inactive) with SW-620; 18.7 µM (inactive) in the assay with A498; 27.2 µM (inactive) with HOP-92; 25.1 µM (inactive) with CAKI-1. The GI50 with RPMI-8226 is 19.2 µM (inactive); in the assay on SF-268 it was 22.8 µM (inactive); in the assay on HCT-116, 12.6 µM (inactive); in the assay with UO-31 it was 13 µM (inactive).

The record behind these values is ChEMBL document CHEMBL1201862, “PubChem BioAssay data set” (2004).
